Structures can show the parent of a compound that is named as a salt.
Assays:
Assay type in all cases: biochemical
[1] = target: T1, recombinant human MAO-B (monoamine oxidase-B) (Homo sapiens, UniProt P27338); test: Activity on recombinant human MAO-B, Amplex Red method, 1 mM benzylamine substrate; settings: 1 mM benzylamine substrate, read-out: Inhibitory Activity (IC50, nM) MAO-B
T1 construct: purchased Sigma-Aldrich
T1 sequence (P27338 1-520): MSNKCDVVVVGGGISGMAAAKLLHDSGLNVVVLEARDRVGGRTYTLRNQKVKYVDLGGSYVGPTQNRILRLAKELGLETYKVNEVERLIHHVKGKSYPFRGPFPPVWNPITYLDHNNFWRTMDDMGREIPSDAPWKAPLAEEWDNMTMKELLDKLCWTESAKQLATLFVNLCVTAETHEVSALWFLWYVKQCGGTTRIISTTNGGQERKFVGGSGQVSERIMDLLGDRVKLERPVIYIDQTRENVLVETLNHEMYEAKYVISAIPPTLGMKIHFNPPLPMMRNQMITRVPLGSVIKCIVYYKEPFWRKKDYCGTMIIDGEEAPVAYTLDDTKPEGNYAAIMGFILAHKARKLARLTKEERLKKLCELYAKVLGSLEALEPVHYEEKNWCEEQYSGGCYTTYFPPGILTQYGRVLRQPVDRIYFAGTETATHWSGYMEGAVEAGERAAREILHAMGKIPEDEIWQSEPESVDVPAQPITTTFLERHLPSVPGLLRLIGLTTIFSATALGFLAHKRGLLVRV
In short: (§1)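 Enzyme in pH 7.4 phosphate buffer; 30 min, 37° C with compound (DMSO <1%); start with 200 uM Amplex Red + 1 U/mL HRP + tyramine 0.5 mM (MAO-A) or benzylamine 1 mM (MAO-B); kinetic read ex 544/em 590, 1-2 h; % rate decrease vs DMSO control → IC50, 4-parameter fit.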

[2] = target: T2, recombinant human MAO-A (monoamine oxidase-A) (Homo sapiens, UniProt P21397); test: Activity on recombinant human MAO-A, Amplex Red method, 0.5 mM tyramine substrate; settings: 0.5 mM tyramine substrate, read-out: Inhibitory Activity (IC50, nM) MAO-A
T2 construct: purchased Sigma-Aldrich
T2 sequence (P21397 1-527): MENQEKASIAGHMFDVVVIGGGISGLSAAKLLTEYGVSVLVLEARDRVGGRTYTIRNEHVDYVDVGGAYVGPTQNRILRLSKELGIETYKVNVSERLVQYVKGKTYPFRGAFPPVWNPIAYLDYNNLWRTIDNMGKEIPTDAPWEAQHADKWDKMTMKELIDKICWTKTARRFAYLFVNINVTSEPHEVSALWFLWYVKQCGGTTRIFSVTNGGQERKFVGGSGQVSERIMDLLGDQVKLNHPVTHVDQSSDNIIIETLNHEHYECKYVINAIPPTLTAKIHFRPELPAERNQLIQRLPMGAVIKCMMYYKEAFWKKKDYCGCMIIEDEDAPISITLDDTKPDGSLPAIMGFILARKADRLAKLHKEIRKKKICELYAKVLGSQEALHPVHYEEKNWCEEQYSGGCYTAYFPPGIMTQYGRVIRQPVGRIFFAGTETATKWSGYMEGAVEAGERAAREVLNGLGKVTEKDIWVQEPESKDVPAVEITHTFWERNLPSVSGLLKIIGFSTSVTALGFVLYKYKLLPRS
In short: as §1

recombinant human VAP-1 = target: T3, recombinant human VAP-1 (Homo sapiens, UniProt Q16853); test: Activity on recombinant human VAP-1, Amplex Red HRP-coupled hydrogen peroxide assay, benzylamine substrate; settings: recombinant human VAP-1, benzylamine substrate; read-out: Inhibitory Activity (IC50, nM) human VAP-1
T3 construct: purchased R&D systems
T3 sequence (Q16853 1-763): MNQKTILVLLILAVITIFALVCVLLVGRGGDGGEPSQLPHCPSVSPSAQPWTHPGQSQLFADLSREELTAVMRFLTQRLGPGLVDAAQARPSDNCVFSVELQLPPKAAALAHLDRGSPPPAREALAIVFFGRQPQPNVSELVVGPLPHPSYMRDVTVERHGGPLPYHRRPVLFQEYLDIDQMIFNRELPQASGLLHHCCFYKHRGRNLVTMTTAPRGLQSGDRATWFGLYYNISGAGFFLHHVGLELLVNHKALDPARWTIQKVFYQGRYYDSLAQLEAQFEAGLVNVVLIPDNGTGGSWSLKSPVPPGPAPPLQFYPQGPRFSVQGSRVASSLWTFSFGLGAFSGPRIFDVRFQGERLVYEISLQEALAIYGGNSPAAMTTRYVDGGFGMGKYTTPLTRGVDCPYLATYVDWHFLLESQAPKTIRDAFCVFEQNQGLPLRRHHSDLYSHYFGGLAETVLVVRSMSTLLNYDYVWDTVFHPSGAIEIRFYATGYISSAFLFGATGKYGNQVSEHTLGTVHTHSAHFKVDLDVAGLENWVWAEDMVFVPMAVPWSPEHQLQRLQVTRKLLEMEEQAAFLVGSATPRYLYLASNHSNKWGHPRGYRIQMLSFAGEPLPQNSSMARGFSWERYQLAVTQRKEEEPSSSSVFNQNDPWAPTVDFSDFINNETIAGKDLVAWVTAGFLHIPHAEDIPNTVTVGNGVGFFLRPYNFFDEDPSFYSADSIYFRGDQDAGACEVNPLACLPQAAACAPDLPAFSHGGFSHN
In short: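 Enzyme in 50 mM sodium phosphate (pH 7.4) is exposed to test compound for 30 min at 37 °C. Benzylamine (1 mM) with HRP and Amplex Red then starts the reaction, and the fluorescence rate, relative to a DMSO-only control, gives IC50.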

[3] = target: T4, recombinant human DAO (diamine oxidase) (Homo sapiens, UniProt P19801); test: Activity on recombinant human DAO, Amplex Red method, 1 mM putrescine substrate; settings: recombinant human DAO, 1 mM putrescine substrate; read-out: Inhibitory Activity (IC50, nM) DAO
T4 construct: purchased R&D systems
T4 sequence (P19801 20-751): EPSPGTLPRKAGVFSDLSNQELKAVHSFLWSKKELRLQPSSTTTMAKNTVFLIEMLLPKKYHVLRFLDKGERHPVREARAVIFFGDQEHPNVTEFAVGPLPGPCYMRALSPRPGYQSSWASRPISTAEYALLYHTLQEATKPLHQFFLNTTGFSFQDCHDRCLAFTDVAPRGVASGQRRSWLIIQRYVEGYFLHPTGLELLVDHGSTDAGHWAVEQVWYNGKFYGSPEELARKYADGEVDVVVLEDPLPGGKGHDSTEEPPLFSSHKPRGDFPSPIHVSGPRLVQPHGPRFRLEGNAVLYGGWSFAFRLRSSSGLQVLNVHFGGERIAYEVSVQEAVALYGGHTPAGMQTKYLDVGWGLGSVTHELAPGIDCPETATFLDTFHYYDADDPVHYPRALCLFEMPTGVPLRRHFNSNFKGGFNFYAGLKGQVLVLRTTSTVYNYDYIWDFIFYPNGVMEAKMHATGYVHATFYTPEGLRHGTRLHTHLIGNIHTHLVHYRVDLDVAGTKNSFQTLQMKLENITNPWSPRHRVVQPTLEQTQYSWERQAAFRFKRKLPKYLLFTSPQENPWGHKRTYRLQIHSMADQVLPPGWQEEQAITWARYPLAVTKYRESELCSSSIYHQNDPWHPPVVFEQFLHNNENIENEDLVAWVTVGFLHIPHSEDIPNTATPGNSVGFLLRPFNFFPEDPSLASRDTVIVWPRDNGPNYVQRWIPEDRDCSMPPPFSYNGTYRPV
In short: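 Inhibition of recombinant human DAO (diamine oxidase, R&D systems) was assessed with the Amplex Red Hydrogen Peroxide Assay Kit. Hydrogen peroxide produced from 1 mM putrescine was detected through an HRP-coupled reaction that converts Amplex Red into fluorescent resorufin, read at 544 nm excitation and 590 nm emission. IC50 values came from four-parameter logistic fits in GraphPad Prism.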

| SMILES | IC50 [1] [nM] | IC50 [2] [nM] | IC50 (recombinant human VAP-1) [nM] | IC50 [3] [nM] |
| --- | --- | --- | --- | --- |
| NC/C(=C\F)Cn1ncn(-c2cc(-c3ccc4sc(N)nc4c3)ccn2)c1=O [Example 173, 4-[4-(2-amino-1,3-benzothiazol-5-yl)pyridin-2-yl]-2-[(2E)-2-(aminomethyl)-3-fluoroprop-2-en-1-yl]-2,4-dihydro-3H-1,2,4-triazol-3-one] | > 10000 | > 100000 | 0.41 | 5.9 |
| CN(C)c1cccc(-c2cccc(-n3cnn(C/C(=C/F)CN)c3=O)n2)c1 [Example 174, 2-[(2E)-2-(aminomethyl)-3-fluoroprop-2-en-1-yl]-4-{6-[3-(dimethylamino)phenyl]pyridin-2-yl}-2,4-dihydro-3H-1,2,4-triazol-3-one hydrochloride] | 710 | > 100000 | 2.2 | 1100 |
| CC(=O)Nc1ccc(-c2cccc(-n3cnn(C/C(=C/F)CN)c3=O)n2)cc1 [Example 175, N-[4-(6-{1-[(2E)-2-(aminomethyl)-3-fluoroprop-2-en-1-yl]-5-oxo-1,5-dihydro-4H-1,2,4-triazol-4-yl}pyridin-2-yl)phenyl]acetamide] | > 10000 | 1470 | 0.44 | < 30 |
| NC/C(=C\F)Cn1ncn(-c2cccc(-c3ccc(-c4ccon4)cc3)n2)c1=O [Example 176, 2-[(2E)-2-(aminomethyl)-3-fluoroprop-2-en-1-yl]-4-{6-[4-(1,2-oxazol-3-yl)phenyl]pyridin-2-yl}-2,4-dihydro-3H-1,2,4-triazol-3-one] | 3320 | 7900 | 0.83 | < 30 |
| NC/C(=C\F)Cn1ncn(-c2cccc(-c3ccc(-c4cnon4)cc3)n2)c1=O [Example 177, 2-[(2E)-2-(aminomethyl)-3-fluoroprop-2-en-1-yl]-4-{6-[4-(1,2,5-oxadiazol-3-yl)phenyl]pyridin-2-yl}-2,4-dihydro-3H-1,2,4-triazol-3-one hydrochloride] | 1900 | > 100000 | 0.5 | 2.6 |
| NC/C(=C\F)Cn1ncn(-c2cccc(-c3ccc(-c4noc(C5CC5)n4)cc3)n2)c1=O [Example 178, 2-[(2E)-2-(aminomethyl)-3-fluoroprop-2-en-1-yl]-4-{6-[4-(5-cyclopropyl-1,2,4-oxadiazol-3-yl)phenyl]pyridin-2-yl}-2,4-dihydro-3H-1,2,4-triazol-3-one hydrochloride] | 5490 | 74000 | 1.4 | < 10 |
| NC/C(=C\F)Cn1ncn(-c2cccc(-c3cccc(-c4noc(C5CC5)n4)c3)n2)c1=O [Example 179, 2-[(2E)-2-(aminomethyl)-3-fluoroprop-2-en-1-yl]-4-{6-[3-(5-cyclopropyl-1,2,4-oxadiazol-3-yl)phenyl]pyridin-2-yl}-2,4-dihydro-3H-1,2,4-triazol-3-one hydrochloride] | 390 | 270000 | 1.1 | 3.1 |
| CC(C)c1nc(-c2ccc(-c3cccc(-n4cnn(C/C(=C/F)CN)c4=O)n3)cc2)no1 [Example 180, 2-[(2E)-2-(aminomethyl)-3-fluoroprop-2-en-1-yl]-4-(6-{4-[5-(propan-2-yl)-1,2,4-oxadiazol-3-yl]phenyl}pyridin-2-yl)-2,4-dihydro-3H-1,2,4-triazol-3-one] | 180 | 120000 | 2.8 | 1.4 |
| CC(C)c1nc(-c2cccc(-c3cccc(-n4cnn(C/C(=C/F)CN)c4=O)n3)c2)no1 [Example 181, 2-[(2E)-2-(aminomethyl)-3-fluoroprop-2-en-1-yl]-4-(6-{3-[5-(propan-2-yl)-1,2,4-oxadiazol-3-yl]phenyl}pyridin-2-yl)-2,4-dihydro-3H-1,2,4-triazol-3-one] | 880 | > 100000 | 1.9 | 2.1 |
| NC/C(=C\F)Cn1ncn(-c2cccc(-c3ccc(N4CCCC4)cc3)n2)c1=O [Example 183, 2-[(2E)-2-(aminomethyl)-3-fluoroprop-2-en-1-yl]-4-{6-[4-(pyrrolidin-1-yl)phenyl]pyridin-2-yl}-2,4-dihydro-3H-1,2,4-triazol-3-one hydrochloride] | > 10000 | 13000 | 2.5 | 350 |
| NC/C(=C\F)Cn1ncn(-c2cccc(-c3ccc(N4CCNCC4)cc3)n2)c1=O [Example 184, 2-[(2E)-2-(aminomethyl)-3-fluoroprop-2-en-1-yl]-4-{6-[4-(piperazin-1-yl)phenyl]pyridin-2-yl}-2,4-dihydro-3H-1,2,4-triazol-3-one hydrochloride] | > 10000 | 14000 | 1.4 | 110 |
| NC/C(=C\F)Cn1ncn(-c2cccc(-c3cccc(N4CCNCC4)c3)n2)c1=O [Example 185, 2-[(2E)-2-(aminomethyl)-3-fluoroprop-2-en-1-yl]-4-{6-[3-(piperazin-1-yl)phenyl]pyridin-2-yl}-2,4-dihydro-3H-1,2,4-triazol-3-one hydrochloride] | > 10000 | > 100000 | 2.4 | 2.5 |

— patent US11492335B2, “Aryl or heteroaryl triazolone derivatives or salts thereof, or pharmaceutical compositions comprising the same” (YUHAN CORPORATION, priority 2018, dated 2022)
